Consider one compound from patent publication US20140123342A1, “Regulation of Stomatal Apertures by Apyrases and Extracellular Nucleotides” (BOARD OF REGENTS, THE UNIVERSITY OF TEXAS SYSTEM, priority 2011, published 2014).

This experiment deals with guard cells of x-luc1 and x-luc9 ecto-luciferase lines. As to the kind of experiment: Ecto-luciferase luminescence imaging of extracellular ATP in epidermal peels. It counts as cell-based, Arabidopsis thaliana. As to conditions: 10 μM. From the text: Ecto-luciferase Construct and Plant Transformation: The nucleotide sequence for the 24 amino acid, cleavable signal peptide from the Brassica pollen coat protein, S-locus cysteine-rich protein (SCR13; AF195626) was used to target luciferase for secretion (Schopfer et al., 1999). The signal peptide was incorporated at the N-terminus of the luciferase gene by PCR and the SCR13 signal peptide modified luciferase PCR product was then ligated into the binary vector pLBJ21. This construct was then transformed into Agrobacterium tumefaciens strain GV3101 (pMP90) and then transformed into Arabidopsis plants (Col-0) using the floral dipping method (Clough and Bent, 1998). Transgenic plants were selected by planting on solidified Murashige and Skoog (MS) medium (4.3 g/L Murashige and Skoog salts (Sigma), 0.5% (w/v) MES, and 1.0% (w/v) agar, raised to pH 5.7 with 5 M KOH) containing 50 μg/mL kanamycin. Segregation of T3 generation on kanamycin plates was analysed in order to obtain homozygous lines. Plants showing kanamycin resistance were checked for luciferase activity by growing transgenic plants in MS medium for 10 days and then transferring the whole seedlings into test tubes. Luminescence measurements were performed by placing the test tubes in the light-tight housing of the luminometer reader (Dynatech). Experimental solutions with luciferin substrate with and without 1 mM ATP were injected by an automatic injector, and after 3 seconds counting started at 0.2 second time intervals.
Imaging of Luminescence in Ecto-luciferase Plants: Ecto-luciferase seeds were surface-sterilized, stratified in the dark in 4° C. for at least three days and then planted directly on a cellophane membrane placed upon solidified MS with 1.0% (w/v) agar. Planted plates were placed upright in a culture chamber and grown at 23° C. under 24-h fluorescent light for 7 days. Plates were then reoriented so that the solidified MS medium was at the bottom of the plate and the seedling was able to grow up into the empty space of the petri dish. Seedlings were then allowed to mature for up to 4 weeks under identical temperature and light settings. For “dark” studies petri dishes of 3-4 week old plants were placed in a dark chamber for 24 hours prior to use in the studies.
Mature basal leaves were excised from x-luc1 and x-luc9 plants 3-4 weeks old. Peels were taken and then immediately floated with the abaxial side up in 40 μL, of Arabidopsis leaf buffer on a microscope slide and the chemical being tested in either light or dark conditions depending on the experimental setup. The placing of the peels within their respective solution was considered time zero. Peels were treated for a minimum of 5 minutes before luciferin and flash buffer were added to the solution. […] Luminescence was integrated over 120 seconds, High Gain, Read Out set to slow, using 4×4 pixel binning with Cosmic Suppression on, Background Correction off, and Flatfield Correction off with the filter set to Photo.
All luminescence analysis was conducted using the indiGO Analysis Software (version 2.0.0.26). All images consisted of a photographic image in grayscale with an overlaid luminescence image in pseudo color. […]

Structures are written as SMILES.

As for `CC1=CC(=O)CC(C)(C)[C@@]1(O)/C=C/C(C)=C\C(=O)O` [ABA, abscisic acid], the “ecto-luciferase luminescence in the location of stomata, average” value (5 min, x-luc9 peels, open stomata, light) came to 3.57 cps. Also, the “ecto-luciferase luminescence after return to control levels” value (after 15 min of continuous exposure) is recorded as “about 0.80 cps”.
